The target in one assay is human P2X2/3 receptor (Homo sapiens (Human), UniProt P56373+Q9UBL9). In words: Intracellular calcium measurement (FLIPR, Fluo-4) of antagonist activity at human P2X2/3 receptors. The class given is cell-based. Particulars: human P2X2/3, FLIPR calcium assay, agonist α,β-Me-ATP; read-out: hP2X2/3 IC50. An outline of the steps: (§1)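 Cells expressing human P2X3 or P2X2/3, loaded with Fluo-4, preincubated 30 min at 37° C. with compound (1% DMSO final), then challenged with α,β-Me-ATP at its EC80. Peak FLIPR fluorescence over 90 sec gave % response; IC50, maximal inhibition and Hill slope from triplicates.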
On the technique in general: Calcium assays in cells follow changes in intracellular calcium, usually with a dye or a luminescent sensor.

A further assay addresses human P2X3 receptor (Homo sapiens (Human), UniProt P56373). The assay is described as follows: Intracellular calcium measurement (FLIPR, Fluo-4) of antagonist activity at human P2X3 receptors. It is filed as cell-based. The following applies: read-out: hP2X3 IC50. A digest of the protocol:
as §1

Where [1] appears, read: human P2X3, FLIPR calcium assay, agonist α,β-Me-ATP.

The structures appear in SMILES notation. Read-outs that look alike come from different tables or passages of the source.

human P2X2/3 receptor, sequence (P56373 whole entry): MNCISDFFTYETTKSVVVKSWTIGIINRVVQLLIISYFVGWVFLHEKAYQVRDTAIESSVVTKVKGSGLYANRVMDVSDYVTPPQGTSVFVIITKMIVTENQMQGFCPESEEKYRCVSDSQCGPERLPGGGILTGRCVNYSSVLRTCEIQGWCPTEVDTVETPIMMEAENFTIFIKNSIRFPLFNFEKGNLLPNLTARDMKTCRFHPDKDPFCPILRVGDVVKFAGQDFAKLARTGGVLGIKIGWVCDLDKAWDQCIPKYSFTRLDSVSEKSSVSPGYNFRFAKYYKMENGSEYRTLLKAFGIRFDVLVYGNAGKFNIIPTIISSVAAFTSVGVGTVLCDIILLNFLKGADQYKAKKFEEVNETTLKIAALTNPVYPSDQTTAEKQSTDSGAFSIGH
human P2X2/3 receptor, sequence (Q9UBL9 whole entry): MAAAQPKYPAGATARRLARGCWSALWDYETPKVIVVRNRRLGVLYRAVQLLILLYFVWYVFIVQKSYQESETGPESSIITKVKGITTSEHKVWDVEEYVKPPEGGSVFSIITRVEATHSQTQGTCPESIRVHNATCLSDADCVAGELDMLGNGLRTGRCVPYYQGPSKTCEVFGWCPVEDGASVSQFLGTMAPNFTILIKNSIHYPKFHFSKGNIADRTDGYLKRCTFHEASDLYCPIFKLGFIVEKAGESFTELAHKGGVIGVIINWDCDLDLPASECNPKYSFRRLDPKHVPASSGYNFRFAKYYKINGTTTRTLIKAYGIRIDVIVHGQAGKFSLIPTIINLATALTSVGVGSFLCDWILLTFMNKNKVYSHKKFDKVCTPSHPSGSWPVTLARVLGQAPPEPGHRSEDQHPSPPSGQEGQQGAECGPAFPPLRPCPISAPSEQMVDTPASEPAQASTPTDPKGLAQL
human P2X3 receptor, sequence (P56373 whole entry): as the sequence (P56373 whole entry) above

As to `C[C@@H](NC(=O)c1cc(O[C@@H]2CCOC2)cc(-c2ncc(Cl)s2)c1)c1ccc(C(F)(F)F)nn1` [Example 318, 3-(5-chloro-1,3-thiazol-2-yl)-5-[(3R)-tetrahydrofuran-3-yloxy]-N-{(1R)-1-[6-(trifluoromethyl)pyridazin-3-yl]ethyl}benzamide], the IC50 at human P2X2/3 receptor amounted to 476 nM; at human P2X3 receptor (setting [1]), 32 nM.
On the same counts, the results for `CCc1cnc(-c2cc(O[C@@H]3CCOC3)cc(C(=O)N[C@H](C)c3cnc(C(F)(F)F)nc3)c2)s1` [Example 242, 3-(5-ethyl-1,3-thiazol-2-yl)-5-[(3R)-tetrahydrofuran-3-yloxy]-N-{(1R)-1-[2-(trifluoromethyl)pyrimidin-5-yl]ethyl}benzamide] are 22 nM and 2 nM.
With `Cc1cnc(CNC(=O)c2cc(O[C@@H]3CCOC3)cc(-c3ncc(C)s3)c2)cn1` [Example 12, N-[(5-methylpyrazin-2-yl)methyl]-3-(5-methyl-1,3-thiazol-2-yl)-5-[(3R)-tetrahydrofuran-3-yloxy]benzamide], the IC50 is no less than 10000 nM on human P2X2/3 receptor and 283 nM on human P2X3 receptor.
On to `Cc1cnc(-c2cc(OC3COC3)cc(C(=O)N[C@H](C)c3ccc(Cl)cn3)c2)s1` [Example 46, N-[(1R)-1-(5-Chloropyridin-2-yl)ethyl]-3-(5-methyl-1,3-thiazol-2-yl)-5-(oxetan-3-yloxy)benzamide], for which the IC50 on human P2X2/3 receptor was determined as 389 nM; at human P2X3 receptor (setting [1]), 10 nM.
For `Cc1cnc(-c2cc(OC[C@H]3CN(CC(F)F)CCO3)cc(C(=O)N[C@H](C)c3cnc(C(F)(F)F)nc3)c2)s1` [Example 391, 3-{[(2R)-4-(2,2-difluoroethyl)morpholin-2-yl]methoxy}-5-(5-methyl-1,3-thiazol-2-yl)-N-{(1R)-1-[2-(trifluoromethyl)pyrimidin-5-yl]ethyl}benzamide], the IC50 at human P2X2/3 receptor stood at 840 nM; on human P2X3 receptor (setting [1]), 19 nM.
On the same counts, the results for `Cc1cnc(-c2cc(OC[C@@H]3COCCN3C)cc(C(=O)N[C@H](C)c3ccc(C(F)(F)F)nn3)c2)s1` [Example 389, 3-{[(3S)-4-methylmorpholin-3-yl]methoxy}-5-(5-methyl-1,3-thiazol-2-yl)-N-{(1R)-1-[6-(trifluoromethyl)pyridazin-3-yl]ethyl}benzamide] are 1610 nM and 18 nM.
On the same counts, the results for `Cc1cnc(-c2cc(OC[C@]3(F)CCCNC3)cc(C(=O)NC(C)c3cnc(C(F)(F)F)nc3)c2)s1` (single isomer, unassigned) [Example 355] are 956 nM and 9 nM.
With `Cc1cnc([C@@H](C)NC(=O)c2cc(OCC3CC3)cc(-c3ncc(C)s3)c2)cn1` [Example 4, 3-(Cyclopropylmethoxy)-N-[(1R)-1-(5-methylpyrazin-2-yl)ethyl]-5-(5-methyl-1,3-thiazol-2-yl)benzamide], the IC50 at human P2X2/3 receptor worked out at 98 nM; on human P2X3 receptor (setting [1]) it was 9 nM.
On the same counts, the results for `Cc1cnc(-c2cc(OC3CCS(=O)(=O)CC3)cc(C(=O)N[C@H](C)c3cnc(C(F)(F)F)nc3)c2)s1` [Example 232, 3-[(1,1-dioxidotetrahydro-2H-thiopyran-4-yl)oxy]-5-(5-methyl-1,3-thiazol-2-yl)-N-{(1R)-1-[2-(trifluoromethyl)pyrimidin-5-yl]ethyl}benzamide] are 759 nM and 13 nM.
On the same counts, the results for `Cc1cc(Oc2cc(C(=O)NCc3ccc(C)nn3)cc(-c3ncc(C)s3)c2)ccn1` [Example 101, N-[(6-Methylpyridazin-3-yl)methyl]-3-[(2-methylpyridin-4-yl)oxy]-5-(5-methyl-1,3-thiazol-2-yl)benzamide] are 60 nM and 15 nM.
On the same counts, the results for `Cc1cnc(-c2cc(O[C@@H]3CCOC3)cc(C(=O)N[C@H](C)c3cnc(C(F)F)nc3)c2)s1` [Example 153, N-{(1R)-1-[2-(difluoromethyl)pyrimidin-5-yl]ethyl}-3-(5-methyl-1,3-thiazol-2-yl)-5-[(3R)-tetrahydrofuran-3-yloxy]benzamide] are 304 nM and 27 nM.
As for `Cc1cnc(-c2cc(OCC3CC3)cc(C(=O)N[C@H](C)c3ccc(C(F)(F)F)nn3)c2)s1` [Example 9, 3-(Cyclopropylmethoxy)-5-(5-methyl-1,3-thiazol-2-yl)-N-{(1R)-1-[6-(trifluoromethyl)pyridazin-3-yl]ethyl}benzamide], the IC50 at human P2X2/3 receptor turned out to be 145 nM; on human P2X3 receptor (setting [1]) it was 7 nM.
On the same counts, the results for `CC[C@@H](NC(=O)c1cc(O[C@@H]2CCOC2)cc(-c2ncc(C)s2)c1)c1cnc(C(F)(F)F)nc1` [Example 22, 3-(5-Methyl-1,3-thiazol-2-yl)-5-[(3R)-tetrahydrofuran-3-yloxy]-N-{(1R)-1-[2-(trifluoromethyl)pyrimidin-5-yl]propyl}benzamide] are 987 nM and 132 nM.
For `Cc1ccc([C@@H](C)NC(=O)c2cc(Oc3ccnc(C)c3)cc(-c3ncc(C)s3)c2)cn1` [Example 107, N-[(1R)-1-(6-methylpyridin-3-yl)ethyl]-3-[(2-methylpyridin-4-yl)oxy]-5-(5-methyl-1,3-thiazol-2-yl)benzamide], the figures for the IC50 at human P2X2/3 receptor and at human P2X3 receptor (setting [1]) were 17 nM and 9 nM, respectively.
On the same counts, the results for `Cc1ccc([C@@H](C)NC(=O)c2cc(OC3COC3)cc(-c3ncc(C)s3)c2)nn1` [Example 47, N-[(1R)-1-(6-Methylpyridazin-3-yl)ethyl]-3-(5-methyl-1,3-thiazol-2-yl)-5-(oxetan-3-yloxy)benzamide] are 621 nM and 82 nM.
Consider `Cc1cnc(-c2cc(OC3CCN(C)CC3)cc(C(=O)N[C@H](C)c3cnc(C(F)F)nc3)c2)s1` [Example 215], for which the IC50 is 992 nM on human P2X2/3 receptor and 16 nM on human P2X3 receptor.
`Cc1cnc(-c2cc(OC[C@@H]3COCCN3C)cc(C(=O)N[C@H](C)c3ccc(C(F)(F)F)nc3)c2)s1` [Example 361, 3-{[(3S)-4-methylmorpholin-3-yl]methoxy}-5-(5-methyl-1,3-thiazol-2-yl)-N-{(1R)-1-[6-(trifluoromethyl)pyridin-3-yl]ethyl}benzamide]: the values for the IC50 on human P2X2/3 receptor and at human P2X3 receptor (setting [1]) were 1250 nM and 14 nM, respectively.
Regarding `CC(C)c1cnc(-c2cc(O[C@@H]3CCOC3)cc(C(=O)N[C@H](C)c3ccc(C(F)(F)F)nn3)c2)s1` [Example 294, 3-[5-(propan-2-yl)-1,3-thiazol-2-yl]-5-[(3R)-tetrahydrofuran-3-yloxy]-N-{(1R)-1-[6-(trifluoromethyl)pyridazin-3-yl]ethyl}benzamide], the IC50 on human P2X2/3 receptor was determined as 1060 nM; at human P2X3 receptor (setting [1]), 101 nM.
On the same counts, the results for `Cc1ccc([C@@H](C)NC(=O)c2cc(Oc3nccs3)cc(-c3ncc(C)s3)c2)cn1` [Example 114, N-[(1R)-1-(6-Methylpyridin-3-yl)ethyl]-3-(5-methyl-1,3-thiazol-2-yl)-5-(1,3-thiazol-2-yloxy)benzamide] are 414 nM and 38 nM.
On the same counts, the results for `COC(C)(C)COc1cc(C(=O)N[C@H](C)c2ccc(Cl)cn2)cc(-c2ncc(Cl)s2)c1` [Example 115, N-[(1R)-1-(5-Chloropyridin-2-yl)ethyl]-3-(5-chloro-1,3-thiazol-2-yl)-5-(2-methoxy-2-methylpropoxy)benzamide] are 187 nM and 15 nM.
On the same counts, the results for `Cc1cnc(-c2cc(OCC34CC(CO3)N(C(=O)OC(C)(C)C)C4)cc(C(=O)N[C@H](C)c3cnc(C(F)(F)F)nc3)c2)s1` (stereo partly drawn) [Example 404, tert-butyl 1-{[3-(5-methyl-1,3-thiazol-2-yl)-5-({(1R)-1-[2-(trifluoromethyl)pyrimidin-5-yl]ethyl}carbamoyl)phenoxy]methyl}-2-oxa-5-azabicyclo[2.2.1]heptane-5-carboxylate] are 533 nM and 44 nM.
Consider `CCOC(=O)N1CC2(COc3cc(C(=O)N[C@H](C)c4cnc(C(F)(F)F)nc4)cc(-c4ncc(C)s4)c3)CC1CO2` (stereo partly drawn) [Example 410, Ethyl 1-{[3-(5-methyl-1,3-thiazol-2-yl)-5-({(1R)-1-[2-(trifluoromethyl)pyrimidin-5-yl]ethyl}carbamoyl)phenoxy]methyl}-2-oxa-5-azabicyclo[2.2.1]heptane-5-carboxylate], for which the IC50 at human P2X2/3 receptor was found to be 906 nM; on human P2X3 receptor (setting [1]) it was 22 nM.
On the same counts, the results for `Cc1cnc(-c2cc(OCC3(F)CNC3)cc(C(=O)N[C@H](C)c3cnc(C(F)(F)F)nc3)c2)s1` [Example 358, 3-[(3-fluoroazetidin-3-yl)methoxy]-5-(5-methyl-1,3-thiazol-2-yl)-N-{(1R)-1-[2-(trifluoromethyl)pyrimidin-5-yl]ethyl}benzamide] are 1440 nM and 57 nM.
As for `C#CCOc1cc(C(=O)N[C@H](C)c2cnc(C)cn2)cc(-c2ncc(C)s2)c1` [Example 34, N-[(1R)-1-(5-Methylpyrazin-2-yl)ethyl]-3-(5-methyl-1,3-thiazol-2-yl)-5-(prop-2-yn-1-yloxy)benzamide], the IC50 turned out to be 2120 nM at human P2X2/3 receptor and 111 nM on human P2X3 receptor (setting [1]).
For the compound `Cc1cnc(-c2cc(Oc3nnc(C)s3)cc(C(=O)N[C@H](C)c3cnc(C(F)(F)F)nc3)c2)s1` [Example 111, 3-[(5-Methyl-1,3,4-thiadiazol-2-yl)oxy]-5-(5-methyl-1,3-thiazol-2-yl)-N-[(1R)-1-[2-(trifluoromethyl)pyrimidin-5-yl]ethyl]benzamide], the IC50 on human P2X2/3 receptor came to 380 nM; on human P2X3 receptor (setting [1]), 16 nM.
On the same counts, the results for `CCc1cnc(-c2cc(O[C@@H]3CCOC3)cc(C(=O)N[C@H](C)c3ccc(C)nn3)c2)s1` [Example 240, 3-(5-ethyl-1,3-thiazol-2-yl)-N-[(1R)-1-(6-methylpyridazin-3-yl)ethyl]-5-[(3R)-tetrahydrofuran-3-yloxy]benzamide] are 35 nM and 12 nM.
